Work on O=[N+]([O-])c1ccccc1SSc1ccccc1[N+](=O)[O-] yielded a logP of 3.37.
Work on CC1COC(=O)O1 (stereo not drawn) yielded a logP of -0.41.
For Cn1ccc(=O)n(C)c1=O, the logP was -0.54.
Compound CCSC has a logP of 1.54.
Work on Cn1ccnc1 yielded a logD (pH 8.4) of -0.06.
Compound CCc1cc(Cc2cnc(N)nc2N)cc(CC)c1N has a logD (pH 13.0) of 1.82.
In the case of O=C(O)COc1cc(F)cc(I)c1, the logP is reported as 2.42.
Compound O=C(O)c1ccccc1N1C(=O)CCC1=O has a logD (pH 1.0) of 1.55.
With COc1cccc2c1C(=O)c1c(O)c3c(c(O)c1C2=O)CC(O)(C(=O)CO)CC3OC1CC(O)C(O)C(C)O1 (stereo not drawn) the logD (pH 7.0) was 1.75.
Compound COC(=O)C(=O)OC has a logP of -0.17.
Work on CCCCC(NC(Cc1ccccc1)C(=O)N1CCC(OCOC)CC1)C(=O)NC(CC1CCCCC1)C(O)CC(C(=O)NCCNC(N)=NC#N)C(C)C (stereo not drawn) yielded a logP of 4.14.
For O/N=C/c1ccccc1, the logP was 1.85.
Cc1ccc2[nH]c(N)nc2c1 showed a logP of 1.11.
Compound Oc1ccc(Sc2ccc(O)cc2)cc1 has a logP of 3.34.
ICCI showed a logD (pH 7.4) of 2.71.
O=C(O)Cc1ccccc1Nc1c(F)cccc1Cl gave a logP of 3.8.
Work on Clc1nc(-c2ccccc2)nc2ccccc12 yielded a logP of 4.47.
With FC(F)(F)C(=NNc1ccc(Cl)c(Cl)c1)C(F)(F)F the logD (pH 4.0) was 5.1.
Work on C=CCCC=C yielded a logP of 2.87.
Work on O=C1C=C(N2CC=CC2)C(=O)c2ccccc21 yielded a logP of 2.85.
CC(=O)c1cccc(S(N)(=O)=O)c1 showed a logD (pH 2.1) of 0.25.
With CNCCN(C)C the logP was -0.2.
In the case of CCc1ccc([N+](=O)[O-])cc1, the logD (pH 7.4) is reported as 3.03.
With O=C(O)C1CC1 the logD (pH 1.0) was 0.63.
With CN1C(=O)CN=C(c2ccccc2F)c2c(F)cccc21 the logD (pH 7.4) was 2.41.
With Cc1ccc(C=Cc2ncc([N+](=O)[O-])n2C)cc1 the logD (pH 7.4) was 1.64.
Compound O=C(CCn1ccnc1[N+](=O)[O-])NCCO has a logP of -1.08.
Compound CCS(=O)(=O)CC has a logP of -0.59.
For CC(=O)Nc1ncnc2c1ncn2C, the logP was -0.41.
Cc1cc(C)[nH]n1 gave a logP of 1.01.
CN(C)N=Nc1cccc2oc3ccccc3c12 gave a logP of 4.55.
For COC(=O)CCCC(=O)OC, the logP was 0.62.
Compound N#Cc1cccc(F)c1 has a logP of 1.47.
For Clc1cc(Cl)c2cc(Cl)ccc2c1, the logP was 5.35.
O=C(O)Cn1ccnc1[N+](=O)[O-] showed a logP of -0.34.
For CCc1cccc(CC)c1NC(=O)OC, the logP was 1.99.
c1ccc(-c2csnn2)cc1 showed a logP of 2.42.
CC(=O)C(C)C showed a logP of 0.84.
With Cn1c(N)nc2cc(Cl)c(Cl)cc21 the logP was 2.98.
Work on NC(=O)CCNC(=O)C(F)(F)Cn1cncc1[N+](=O)[O-] yielded a logP of -0.95.
Compound C1CCC(Cc2nnn[nH]2)CC1 has a logD (pH 3.5) of 1.59.
Work on O=C(NCCN1CCC(O)(c2ccc(Cl)cc2)CC1)c1ccc(F)cc1 yielded a logP of 2.85.
Cn1c(N)nc2c3nccnc3ccc21 showed a logD (pH 7.4) of 1.01.
In the case of COC(=O)c1ccc(-c2ncc([N+](=O)[O-])n2C)cc1, the logD (pH 7.4) is reported as 1.63.
CN(C)C(=O)C12CC3CC(CC(C3)C1)C2 gave a logP of 2.55.
Compound O=C(Cn1ccnc1[N+](=O)[O-])NCc1ccccc1 has a logD (pH 7.4) of 0.85.
Compound CC(=O)Nc1ncc([N+](=O)[O-])s1 has a logP of 1.3.
Compound Nc1nc(=O)cc[nH]1 has a logP of -0.99.
With CNC(=S)NNc1ccccc1 the logP was 1.17.
CCOc1ccc(C(=O)O)cc1OCC showed a logD (pH 1.0) of 2.37.
Compound CCCOCCN(C(=O)CCl)c1c(CC)cccc1CC has a logP of 4.08.
O=S(Cc1ccccc1)Cc1ccccc1 showed a logP of 1.99.
COC1=C(N2CC2)C(=O)C(OC)=C(N2CC2)C1=O showed a logP of 0.17.
Compound Cc1c(COC(=O)[C@@H]2[C@H](/C=C(\Cl)C(F)(F)F)C2(C)C)cccc1-c1ccccc1 has a logP of 6.
With NC1CC1 the logP was 0.07.
Compound CCCCn1cc(C)c(=O)[nH]c1=O has a logP of 0.91.
With CCCCOC the logP was 1.66.
CC1(C)CCC(C)(C)O1 gave a logP of 2.06.
With Sc1nc(-c2ccccc2)ns1 the logD (pH 5.0) was 2.13.
Compound CC(C)c1ccc(C(O)C(CO)NC(=O)C(Cl)Cl)cc1 (stereo not drawn) has a logP of 2.24.
Clc1nc(Cl)nc(Nc2ccccc2Cl)n1 gave a logP of 3.
Compound Cn1nnnc1SCC1=C(C(=O)O)N2C(=O)[C@@H](NC(=O)[C@H](O)c3ccccc3)[C@H]2SC1 has a logD (pH 1.0) of 0.25.
With CCc1ncc([N+](=O)[O-])n1C the logD (pH 7.4) was 0.62.
Work on c1ccc2c(c1)CCCC2 yielded a logP of 3.49.
For CNCCNC, the logD (pH 13.0) was -0.62.
For CS(=O)(=O)ON1C(=O)c2ccc([N+](=O)[O-])cc2C1=O, the logP was 1.71.
With CC(C)(C)NCCO the logD (pH 13.0) was 0.41.
CCN(CC)S(=O)(=O)c1ccc(OC)c(N)c1 showed a logP of 1.7.
For COc1ccc(CC#N)cc1, the logP was 1.7.
For O=[N+]([O-])c1ncn(CC(F)(F)CO)n1, the logD (pH 7.4) was -0.21.
For O=C1C=C(N2CCCC2)C(=O)c2ccccc21, the logP was 2.89.
With CCC(C(N)=O)(C(N)=O)c1ccccc1 the logP was 0.13.
Compound COC(=O)Nc1c(C(C)C)cccc1C(C)C has a logP of 2.2.
In the case of Nc1cc([N+](=O)[O-])cc([N+](=O)[O-])c1, the logP is reported as 1.89.
In the case of CN1C(=O)CCC1=O, the logP is reported as -0.95.
In the case of CCOC(=O)C(F)F, the logP is reported as 0.87.
Compound CC1CN1C1=CC(=O)C(N2CC2C)=CC1=O (stereo not drawn) has a logP of 1.07.
For CCC(C)N(C(=O)SCc1ccccc1)C(C)CC (stereo not drawn), the logP was 4.4.
With O=C1C=C(Br)C(=O)c2ccccc21 the logP was 2.44.
Compound N#CNc1ccccc1 has a logP of 1.87.
In the case of Nc1nc2cc(Cl)ccc2[nH]1, the logP is reported as 1.88.
CCCNC gave a logD (pH 13.0) of 0.84.
With CC(=O)CCC(C)=O the logP was -0.27.
With N=C(N)c1ccccc1 the logD (pH 13.0) was 0.65.
For c1ccc2c(c1)Cc1ccccc1S2, the logP was 3.86.
For CC(C)CN(CC(O)COc1ccccc1)CC(O)COc1ccccc1 (stereo not drawn), the logD (pH 13.0) was 3.46.
With C=CCSc1ccccc1 the logP was 3.51.
Cc1ccc(C(=O)COc2c(C(=O)c3ccc(Cl)c(C)c3Cl)c(C)nn2C)cc1 showed a logP of 4.69.
For OCCCF, the logP was -0.28.
COC(=O)Cn1c([N+](=O)[O-])cnc1C showed a logD (pH 7.4) of 0.17.
For Clc1cc(Cl)c2cc(Cl)cc(Cl)c2c1, the logP was 6.19.
With CCCCCn1cnc2c(NC(C)=O)ncnc21 the logP was 0.98.
In the case of OCC=CCO, the logP is reported as -0.81.
For CC(C)C(=O)C(C)C, the logP was 1.86.
For C=CCOC(C)=O, the logP was 0.97.
O=C(NCCCO)C(F)(F)Cn1ccnc1[N+](=O)[O-] showed a logP of -0.64.
Work on O=C(O)CCCl yielded a logD (pH 1.0) of 0.41.
FC1(F)C(F)(F)C(F)(F)C(F)(F)C(F)(F)C1(F)F gave a logP of 2.91.
In the case of CC1(O)CCCCC1, the logP is reported as 1.33.
Nc1ncc(Cc2ccccc2O)c(N)n1 showed a logD (pH 7.4) of 0.82.
Work on CN(C)c1ccc2c(c1)C(c1ccccc1Cl)=NCC(=O)N2C yielded a logD (pH 7.4) of 2.72.
For N#CCC(=O)c1ccccc1, the logP was 0.97.
CCOC(=O)C(=O)Nc1ccccc1 gave a logP of 1.48.
CCN(CC)c1c([N+](=O)[O-])cc(C(F)(F)F)c(N)c1[N+](=O)[O-] gave a logP of 4.3.
For CC(C)=NNc1c([N+](=O)[O-])cc(C(F)(F)F)cc1[N+](=O)[O-], the logD (pH 4.0) was 3.2.
With O=C1Nc2ccccc2C1=O the logD (pH 7.4) was 0.83.
CCCCCCn1cc(C)c(=O)[nH]c1=O gave a logP of 1.93.
For CC1(C)N=C(N)N=C(N)N1c1cccc(OCCOc2ccccc2)c1, the logP was -0.84.
Compound N#Cc1ccc2[nH]c(N)nc2c1 has a logP of 1.13.
Work on O=[N+]([O-])c1cccc(SSc2cccc([N+](=O)[O-])c2)c1 yielded a logP of 4.06.
For CCc1nc(C)c([N+](=O)[O-])[nH]1, the logD (pH 7.4) was 0.76.
COC(=O)/C=C/C(=O)OC gave a logP of 0.74.
CCOC(=O)CC(=O)C=Cc1ccc2c(c1)OCO2 showed a logP of 2.35.
COc1ccc([N+](=O)[O-])cn1 showed a logP of 1.55.
Compound CN1C(=O)CN=C(c2ccccc2C(F)(F)F)c2cc([N+](=O)[O-])ccc21 has a logD (pH 7.4) of 2.45.
Compound CSCCC(NC(C)=O)C(N)=O (stereo not drawn) has a logD (pH 7.1) of -0.6.
Compound Cn1c([N+](=O)[O-])cnc1-c1ccc(F)cc1 has a logD (pH 7.4) of 1.83.
In the case of NC(=O)OCCC1=C(N2CC2)C(=O)C(Br)=C(N2CC2)C1=O, the logP is reported as 0.68.
Compound CC(C)(C)Br has a logP of 1.15.
COC(=O)NCCn1c([N+](=O)[O-])cnc1C showed a logD (pH 7.4) of 0.02.
In the case of CC(C)Nc1nc(N)nc(SC(F)F)n1, the logP is reported as 2.68.
Compound O=[N+]([O-])c1ccco1 has a logP of 0.66.
Compound Nc1cc(C(F)(F)F)ccc1Cl has a logP of 3.06.
O=C(O)c1ccc2c(c1)OCCOCCOCCOCCOCCO2 showed a logP of -0.28.
N#CCN showed a logD (pH 13.0) of -1.37.
In the case of O=C(O)c1c(Cl)cccc1Cl, the logD (pH 1.0) is reported as 2.23.
Work on c1ccc(C23CCCN2CCO3)cc1 (stereo not drawn) yielded a logD (pH 7.4) of 1.04.
In the case of CN(C)N=Nc1nccs1, the logP is reported as 1.27.
For Cc1ncc[nH]1, the logP was 0.24.
Cc1ccc(/N=C/N(C)/C=N/c2ccc(C)cc2C)c(C)c1 showed a logP of 5.5.
Work on CCNC(=O)c1ccoc1 yielded a logP of 0.72.
For CC(C)c1ccc(O)cc1, the logP was 2.9.
CNC1=CC(=O)C(NC)=CC1=O showed a logP of 0.34.
COP(=O)(OC)OC(C)=CC(=O)N(C)C showed a logP of 0.
Compound O=C(NC(F)(F)F)c1cccc2cccnc12 has a logD (pH 7.4) of 3.24.
Work on c1n[nH]c2c1CC[C@H]1c3[nH]ncc3CC[C@H]21 yielded a logD (pH 5.0) of 0.3.
CN(C)C(=S)NN showed a logP of -0.3.
Cc1cccc(OCC(O)CNC(C)C)c1 (stereo not drawn) showed a logP of 2.02.
Cn1cc(-c2ccccc2)c(=O)c(-c2cccc(C(F)(F)F)c2)c1 showed a logD (pH 7.4) of 3.16.
In the case of OC[C@H]1O[C@@H](n2cnc3c2NC=NC[C@H]3O)C[C@@H]1O, the logD (pH 7.4) is reported as -2.09.
Work on COc1ccc(Oc2cnc(N)nc2N)c(OC)c1OC yielded a logD (pH 13.0) of 0.9.
Compound CCCCc1c(C)[nH]c(N(C)C)nc1=O has a logP of 1.9.
CC(C)NC(C)C showed a logP of 1.4.
With CC(C)(C)Cl the logP was 1.82.
In the case of FC(F)(F)CCc1ccccc1, the logP is reported as 3.31.
Work on Cc1cc(=O)[nH]c(=O)[nH]1 yielded a logD (pH 7.4) of -0.77.
With FC(F)(F)c1cccc(C(F)(F)F)c1 the logP was 3.83.
c1ccc2c(c1)CCc1ccccc1-2 showed a logP of 4.52.
In the case of Cn1cccc1C=NNC(=O)Nc1ccccc1, the logP is reported as 2.71.
Compound CCCCCc1ccc(N)cc1 has a logD (pH 7.4) of 3.39.
With OCc1ccc2cccnc2c1 the logD (pH 7.4) was 1.29.
Work on BrCCCBr yielded a logP of 2.37.
Work on CS(=O)(=O)CC#N yielded a logP of -1.42.
With COC(=O)C(Cl)(Cl)Cl the logP was 2.03.
Compound CCC(C)c1cc([N+](=O)[O-])cc(C(C)CC)c1O (stereo not drawn) has a logP of 4.8.
With Cc1cc(Cc2cnc(N)nc2N)cc(C(C)C)c1N the logD (pH 13.0) was 1.77.
Work on Cc1ncc([N+](=O)[O-])n1CCNC(=O)OC(C)C yielded a logD (pH 7.4) of 0.88.
O=[N+]([O-])Nc1ccccn1 gave a logP of -1.02.
In the case of CC(C)(C)C#N, the logD (pH 1.0) is reported as 1.08.
FC(F)(F)c1ccc(C(F)(F)F)cc1 showed a logP of 3.83.
Work on C=CCOC(Cn1ccnc1)c1ccc(Cl)cc1Cl (stereo not drawn) yielded a logD (pH 9.2) of 3.82.
For CCCCCCCCn1cc(C)c(=O)[nH]c1=O, the logP was 3.04.
Nc1nc(Cl)c2ncn([C@@H]3O[C@H](CO)C[C@@H]3F)c2n1 showed a logD (pH 7.0) of 0.28.

From the SangsterLogP compilation
